Experimental data published in ChEMBL document CHEMBL3352227, “Synthesis, antimycobacterial and antibacterial evaluation of l-[(1R, 2S)-2-fluorocyclopropyl]fluoroquinolone derivatives containing an oxime functional moiety” (Eur J Med Chem, 2014).
Values after ≈ are worked out from the molar mass of the structure shown.

How the values were obtained:
Format in all cases: functional
[1] = tested on: Staphylococcus aureus; assay: Antibacterial activity against methicillin-resistant Staphylococcus aureus 12-2 after 18 to 24 hrs by standard twofold serial dilution method
[2] = tested on: Staphylococcus epidermidis; assay: Antibacterial activity against methicillin-sensitive Staphylococcus epidermidis 12-8 after 18 to 24 hrs by standard twofold serial dilution method
[3] = tested on: Staphylococcus aureus; assay: Antibacterial activity against methicillin-sensitive Staphylococcus aureus 12-1 after 18 to 24 hrs by standard twofold serial dilution method
[4] = tested on: Streptococcus pneumoniae; assay: Antibacterial activity against Streptococcus pneumoniae ATCC 49619 after 18 to 24 hrs by standard twofold serial dilution method
[5] = tested on: Staphylococcus epidermidis; assay: Antibacterial activity against methicillin-resistant Staphylococcus epidermidis 12-6 after 18 to 24 hrs by standard twofold serial dilution method
[6] = tested on: Escherichia coli; assay: Antibacterial activity against extended-spectrum beta-lactamase producing Escherichia coli 12-15 after 18 to 24 hrs by standard twofold serial dilution method
[7] = tested on: Pseudomonas aeruginosa; assay: Antibacterial activity against Pseudomonas aeruginosa 12-14 after 18 to 24 hrs by standard twofold serial dilution method
[8] = tested on: Klebsiella pneumoniae; assay: Antibacterial activity against Klebsiella pneumoniae 12-1 after 18 to 24 hrs by standard twofold serial dilution method
[9] = tested on: Staphylococcus aureus; assay: Antibacterial activity against methicillin-resistant Staphylococcus aureus 12-5 after 18 to 24 hrs by standard twofold serial dilution method
[10] = tested on: Staphylococcus aureus; assay: Antibacterial activity against Staphylococcus aureus ATCC 25923 after 18 to 24 hrs by standard twofold serial dilution method
[11] = tested on: Klebsiella pneumoniae; assay: Antibacterial activity against Klebsiella pneumoniae 12-2 after 18 to 24 hrs by standard twofold serial dilution method
[12] = tested on: Staphylococcus epidermidis; assay: Antibacterial activity against methicillin-sensitive Staphylococcus epidermidis 12-3 after 18 to 24 hrs by standard twofold serial dilution method
[13] = tested on: Staphylococcus aureus; assay: Antibacterial activity against methicillin-sensitive Staphylococcus aureus 12-2 after 18 to 24 hrs by standard twofold serial dilution method
[14] = tested on: Escherichia coli; assay: Antibacterial activity against extended-spectrum beta-lactamase producing Escherichia coli 12-3 after 18 to 24 hrs by standard twofold serial dilution method
[15] = tested on: Staphylococcus aureus; assay: Antibacterial activity against methicillin-resistant Staphylococcus aureus 12-4 after 18 to 24 hrs by standard twofold serial dilution method
[16] = tested on: Escherichia coli; assay: Antibacterial activity against Escherichia coli 12-1 after 18 to 24 hrs by standard twofold serial dilution method
[17] = tested on: Klebsiella pneumoniae; assay: Antibacterial activity against extended-spectrum beta-lactamase producin Klebsiella pneumoniae 12-14 after 18 to 24 hrs by standard twofold serial dilution method
[18] = tested on: Escherichia coli; assay: Antibacterial activity against extended-spectrum beta-lactamase producing Escherichia coli 12-14 after 18 to 24 hrs by standard twofold serial dilution method
[19] = tested on: Staphylococcus aureus; assay: Antibacterial activity against methicillin-sensitive Staphylococcus aureus 12-4 after 18 to 24 hrs by standard twofold serial dilution method
[20] = tested on: Staphylococcus epidermidis; assay: Antibacterial activity against methicillin-resistant Staphylococcus epidermidis 12-1 after 18 to 24 hrs by standard twofold serial dilution method
[21] = tested on: Pseudomonas aeruginosa; assay: Antibacterial activity against Pseudomonas aeruginosa 12-12 after 18 to 24 hrs by standard twofold serial dilution method
[22] = tested on: Staphylococcus epidermidis; assay: Antibacterial activity against methicillin-sensitive Staphylococcus epidermidis 12-1 after 18 to 24 hrs by standard twofold serial dilution method
[23] = tested on: Escherichia coli; assay: Antibacterial activity against extended-spectrum beta-lactamase producing Escherichia coli 12-2 after 18 to 24 hrs by standard twofold serial dilution method
[24] = tested on: Klebsiella pneumoniae; assay: Antibacterial activity against extended-spectrum beta-lactamase producin Klebsiella pneumoniae 12-7 after 18 to 24 hrs by standard twofold serial dilution method
[25] = tested on: Klebsiella pneumoniae; assay: Antibacterial activity against extended-spectrum beta-lactamase producin Klebsiella pneumoniae 12-3 after 18 to 24 hrs by standard twofold serial dilution method
[26] = tested on: Mycobacterium tuberculosis; assay: Antimycobacterial activity against Mycobacterium tuberculosis H37Rv ATCC 27294 by MABA method
[27] = tested on: Klebsiella pneumoniae; assay: Antibacterial activity against Klebsiella pneumoniae 12-4 after 18 to 24 hrs by standard twofold serial dilution method
[28] = tested on: Staphylococcus epidermidis; assay: Antibacterial activity against methicillin-sensitive Staphylococcus epidermidis 12-6 after 18 to 24 hrs by standard twofold serial dilution method
[29] = tested on: Escherichia coli; assay: Antibacterial activity against Escherichia coli ATCC 25922 after 18 to 24 hrs by standard twofold serial dilution method
[30] = tested on: Staphylococcus aureus; assay: Antibacterial activity against methicillin-sensitive Staphylococcus aureus 12-5 after 18 to 24 hrs by standard twofold serial dilution method
[31] = tested on: Klebsiella pneumoniae; assay: Antibacterial activity against extended-spectrum beta-lactamase producin Klebsiella pneumoniae 12-4 after 18 to 24 hrs by standard twofold serial dilution method
[32] = tested on: Streptococcus pneumoniae; assay: Antibacterial activity against Streptococcus pneumoniae 12-18 after 18 to 24 hrs by standard twofold serial dilution method

Compound	MIC [1]	MIC [2]	MIC [3]	MIC [4]	MIC [5]	MIC [6]	MIC [7]	MIC [8]	MIC [9]	MIC [10]	MIC [11]	MIC [12]	MIC [13]	MIC [14]	MIC [15]	MIC [16]	MIC [17]	MIC [18]	MIC [19]	MIC [20]	other results
NCC1CN(c2c(F)cc3c(=O)c(C(=O)O)cn([C@@H]4C[C@@H]4F)c3c2Cl)C/C1=N/OCc1ccccc1 (stereo not given in full)	0.5 mg/L (≈ 0.967 µM)	64 mg/L (≈ 124 µM)	0.5 mg/L (≈ 0.967 µM)	1 mg/L (≈ 1.93 µM)	64 mg/L (≈ 124 µM)	> 128 mg/L	64 mg/L (≈ 124 µM)	2 mg/L (≈ 3.87 µM)	0.5 mg/L (≈ 0.967 µM)	0.25 mg/L (≈ 0.484 µM)	2 mg/L (≈ 3.87 µM)	1 mg/L (≈ 1.93 µM)	0.5 mg/L (≈ 0.967 µM)	32 mg/L (≈ 61.9 µM)	0.5 mg/L (≈ 0.967 µM)	32 mg/L (≈ 61.9 µM)	> 128 mg/L	> 128 mg/L	0.25 mg/L (≈ 0.484 µM)	0.5 mg/L (≈ 0.967 µM)	MIC [21]: 8 mg/L (≈ 15.5 µM); MIC [22]: 0.5 mg/L (≈ 0.967 µM); MIC [23]: > 128 mg/L; MIC [24]: 16 mg/L (≈ 31 µM); MIC [25]: > 128 mg/L; MIC [26]: 16 mg/L (≈ 31 µM); MIC [27]: 2 mg/L (≈ 3.87 µM); MIC [28]: 0.5 mg/L (≈ 0.967 µM); MIC [29]: 0.5 mg/L (≈ 0.967 µM); MIC [30]: 0.5 mg/L (≈ 0.967 µM); MIC [31]: 32 mg/L (≈ 61.9 µM); MIC [32]: 8 mg/L (≈ 15.5 µM)
CO/N=C1/CCN(c2nc3c(cc2F)c(=O)c(C(=O)O)cn3[C@@H]2C[C@@H]2F)CC1N (stereo not given in full)	> 128 mg/L	< 0.008 mg/L	2 mg/L (≈ 4.91 µM)	1 mg/L (≈ 2.45 µM)	1 mg/L (≈ 2.45 µM)	> 128 mg/L	128 mg/L (≈ 314 µM)	2 mg/L (≈ 4.91 µM)	> 128 mg/L	1 mg/L (≈ 2.45 µM)	1 mg/L (≈ 2.45 µM)	< 0.008 mg/L	2 mg/L (≈ 4.91 µM)	16 mg/L (≈ 39.3 µM)	> 128 mg/L	8 mg/L (≈ 19.6 µM)	> 128 mg/L	> 128 mg/L	1 mg/L (≈ 2.45 µM)	> 128 mg/L	MIC [21]: 16 mg/L (≈ 39.3 µM); MIC [22]: 1 mg/L (≈ 2.45 µM); MIC [23]: > 128 mg/L; MIC [24]: 32 mg/L (≈ 78.6 µM); MIC [25]: > 128 mg/L; MIC [26]: 4 mg/L (≈ 9.82 µM); MIC [27]: 1 mg/L (≈ 2.45 µM); MIC [28]: 1 mg/L (≈ 2.45 µM); MIC [29]: 0.25 mg/L (≈ 0.614 µM); MIC [30]: 2 mg/L (≈ 4.91 µM); MIC [31]: 64 mg/L (≈ 157 µM); MIC [32]: 4 mg/L (≈ 9.82 µM)
CO/N=C1/CN(c2nc3c(cc2F)c(=O)c(C(=O)O)cn3[C@@H]2C[C@@H]2F)CC1CN (stereo not given in full)	16 mg/L (≈ 39.3 µM)	1 mg/L (≈ 2.45 µM)	0.125 mg/L (≈ 0.307 µM)	0.125 mg/L (≈ 0.307 µM)	4 mg/L (≈ 9.82 µM)	> 128 mg/L	8 mg/L (≈ 19.6 µM)	0.25 mg/L (≈ 0.614 µM)	16 mg/L (≈ 39.3 µM)	0.015 mg/L (≈ 0.0368 µM)	0.25 mg/L (≈ 0.614 µM)	0.5 mg/L (≈ 1.23 µM)	0.125 mg/L (≈ 0.307 µM)	32 mg/L (≈ 78.6 µM)	32 mg/L (≈ 78.6 µM)	0.5 mg/L (≈ 1.23 µM)	64 mg/L (≈ 157 µM)	64 mg/L (≈ 157 µM)	0.06 mg/L (≈ 0.147 µM)	4 mg/L (≈ 9.82 µM)	MIC [21]: 0.5 mg/L (≈ 1.23 µM); MIC [22]: 0.125 mg/L (≈ 0.307 µM); MIC [23]: 128 mg/L (≈ 314 µM); MIC [24]: 2 mg/L (≈ 4.91 µM); MIC [25]: 32 mg/L (≈ 78.6 µM); MIC [26]: 0.5 mg/L (≈ 1.23 µM); MIC [27]: 0.25 mg/L (≈ 0.614 µM); MIC [28]: 0.125 mg/L (≈ 0.307 µM); MIC [29]: 0.06 mg/L (≈ 0.147 µM); MIC [30]: 0.125 mg/L (≈ 0.307 µM); MIC [31]: 0.5 mg/L (≈ 1.23 µM); MIC [32]: 0.25 mg/L (≈ 0.614 µM)
CCO/N=C1/CN(c2nc3c(cc2F)c(=O)c(C(=O)O)cn3[C@@H]2C[C@@H]2F)CC1CN (stereo not given in full)	4 mg/L (≈ 9.49 µM)	0.25 mg/L (≈ 0.593 µM)	0.015 mg/L (≈ 0.0356 µM)	0.03 mg/L (≈ 0.0712 µM)	4 mg/L (≈ 9.49 µM)	128 mg/L (≈ 304 µM)	2 mg/L (≈ 4.75 µM)	0.03 mg/L (≈ 0.0712 µM)	4 mg/L (≈ 9.49 µM)	< 0.008 mg/L	0.06 mg/L (≈ 0.142 µM)	0.03 mg/L (≈ 0.0712 µM)	0.015 mg/L (≈ 0.0356 µM)	16 mg/L (≈ 38 µM)	4 mg/L (≈ 9.49 µM)	0.06 mg/L (≈ 0.142 µM)	32 mg/L (≈ 75.9 µM)	16 mg/L (≈ 38 µM)	0.015 mg/L (≈ 0.0356 µM)	1 mg/L (≈ 2.37 µM)	MIC [21]: 0.125 mg/L (≈ 0.297 µM); MIC [22]: < 0.008 mg/L; MIC [23]: 64 mg/L (≈ 152 µM); MIC [24]: 0.125 mg/L (≈ 0.297 µM); MIC [25]: 16 mg/L (≈ 38 µM); MIC [26]: 0.5 mg/L (≈ 1.19 µM); MIC [27]: 0.125 mg/L (≈ 0.297 µM); MIC [28]: 0.015 mg/L (≈ 0.0356 µM); MIC [29]: < 0.008 mg/L; MIC [30]: 0.015 mg/L (≈ 0.0356 µM); MIC [31]: 8 mg/L (≈ 19 µM); MIC [32]: 0.06 mg/L (≈ 0.142 µM)
CO/N=C1/CN(c2nc3c(cc2F)c(=O)c(C(=O)O)cn3[C@@H]2C[C@@H]2F)[C@H]1CN	32 mg/L (≈ 81.4 µM)	2 mg/L (≈ 5.08 µM)	0.06 mg/L (≈ 0.153 µM)	0.5 mg/L (≈ 1.27 µM)	4 mg/L (≈ 10.2 µM)	> 128 mg/L	32 mg/L (≈ 81.4 µM)	0.25 mg/L (≈ 0.636 µM)	32 mg/L (≈ 81.4 µM)	0.125 mg/L (≈ 0.318 µM)	0.25 mg/L (≈ 0.636 µM)	0.5 mg/L (≈ 1.27 µM)	0.06 mg/L (≈ 0.153 µM)	16 mg/L (≈ 40.7 µM)	32 mg/L (≈ 81.4 µM)	1 mg/L (≈ 2.54 µM)	128 mg/L (≈ 325 µM)	128 mg/L (≈ 325 µM)	0.03 mg/L (≈ 0.0763 µM)	4 mg/L (≈ 10.2 µM)	MIC [21]: 2 mg/L (≈ 5.08 µM); MIC [22]: 0.06 mg/L (≈ 0.153 µM); MIC [23]: 128 mg/L (≈ 325 µM); MIC [24]: 2 mg/L (≈ 5.08 µM); MIC [25]: 64 mg/L (≈ 163 µM); MIC [26]: 1 mg/L (≈ 2.54 µM); MIC [27]: 0.25 mg/L (≈ 0.636 µM); MIC [28]: 0.06 mg/L (≈ 0.153 µM); MIC [29]: 0.06 mg/L (≈ 0.153 µM); MIC [30]: 0.06 mg/L (≈ 0.153 µM); MIC [31]: 8 mg/L (≈ 20.3 µM); MIC [32]: 2 mg/L (≈ 5.08 µM)
